Data: patent US8772286B2, “MK2 inhibitors” (Merck Sharp & Dohme B.V., priority 2009, dated 2014)
Values after ≈ are worked out from the molar mass of the structure shown. Read-outs that look alike come from different tables or passages of the source.

Tests used:
MK2 enzyme = target: T1, MK2 enzyme (Homo sapiens, UniProt P49137); assay: MK2 enzyme activity, IMAP fluorescence polarization assay; type: biochemical
T1 construct: MK2 enzyme (active enzyme (peptide 46-end (Millipore))); purchased Millipore
Procedure, shortened: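 Enzyme kept in KR buffer (10 mM Tris-HCl, 10 mM MgCl2, 0.01% Tween-20, 2 mM DTT, pH 7.2) and acting on a fluorescein-labeled peptide substrate; final compound range 10 μM to 0.316 nM. After 60 min at room temperature, FP at 535 nm was read. Signal as percent of the with/without-ATP control difference, and EC50 by curve fit.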

[1] = Solubility determination of MK2 inhibitors (kinetic aqueous solubility, UPLC); type: physicochemical; details: aqueous buffer (system solution from pION inc.), 22 °C, pH 7.4, aqueous buffer, kinetic from dmso stock
Procedure, shortened: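 Kinetic shake-flask solubility (mg/L) at pH 7.4, room temperature (21-23° C.), 1% final DMSO from 10 mM DMSO stock, duplicates. Shaken 24 h, filtered (0.45 um), 1-propanol added to filtrate; dissolved compound quantified by UPLC-UV against external DMSO calibration line of the same compound.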

[2] = MK2 IMAP assay, 1 μM ATP, 30 min pre-incubation, 2 h room temperature, read-out: pEC50 value (converted)
[3] = pH 7.4, room temperature, about 1% DMSO, 24 h shaking, read-out: solubility
[4] = Table 1, comparison compound of Formula (XV) without spiro ring, pH 7.4, read-out: Solubility pH 7.4 (mg/L), Formula (XV)

T1 sequence (P49137 46-400 limits assumed): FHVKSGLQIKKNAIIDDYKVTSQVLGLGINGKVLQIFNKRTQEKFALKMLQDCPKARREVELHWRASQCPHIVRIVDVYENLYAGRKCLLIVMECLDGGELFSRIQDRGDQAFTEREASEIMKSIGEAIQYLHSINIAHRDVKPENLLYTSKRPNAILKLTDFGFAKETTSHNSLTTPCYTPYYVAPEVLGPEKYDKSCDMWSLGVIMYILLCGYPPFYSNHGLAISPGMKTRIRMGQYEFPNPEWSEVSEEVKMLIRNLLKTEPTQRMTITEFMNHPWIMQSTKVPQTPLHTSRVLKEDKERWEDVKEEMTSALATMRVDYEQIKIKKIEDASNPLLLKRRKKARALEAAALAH

SMILES | EC50 (MK2 enzyme; [2]) | solubility at 24 h [1, 3] | also measured
O=C1NCC2(CCNCC2)c2[nH]c(-c3ccnc(-c4cccc(OC(F)(F)F)c4)n3)cc21 [1—16, 2′-(2-(3-(trifluoromethoxy)phenyl)pyrimidin-4-yl)-5′,6′-dihydrospiro[piperidine-4,7′-pyrrolo[3,2-c]pyridin]-4′(1′H)-one] | 3.16 to 31.6 nM | ≥ 50 mg/L | 
O=C1NCC2(CCNC2)c2[nH]c(-c3ccnc(-c4cnc5ccccc5c4)n3)cc21 (stereo not shown) [Example 6—1, 2′-(2-(quinolin-3-yl)pyrimidin-4-yl)-5′,6′-dihydrospiro[pyrrolidine-3,7′-pyrrolo[3,2-c]pyridin]-4′(1′H)-one] | ≤ 3.16 nM | 20 to 50 mg/L (≈ 50.4 to 126 µM) | 
O=C1NCC2(CCOCC2)c2[nH]c(-c3ccnc(-c4cnc5ccccc5c4)n3)cc21 [17_2 Formula (XVI)] |  |  | EC50 (MK2 enzyme; Table 2, comparison compound of Formula (XVI), spiro ring without amine, MK2 IMAP assay, read-out: pEC50, Formula (XVI) (converted)): 316 nM; solubility at 24 h ([1]; Table 2, comparison compound of Formula (XVI), spiro ring without amine, pH 7.4, read-out: Solubility pH 7.4 (mg/L), Formula (XVI)): 3 mg/L
O=C1NCC2(CCNCC2)c2[nH]c(-c3ccnc(-c4cc(C(F)(F)F)cc(C(F)(F)F)c4)n3)cc21 [1—34, 2′-(2-(3,5-bis(trifluoromethyl)phenyl)pyrimidin-4-yl)-5′,6′-dihydrospiro[piperidine-4,7′-pyrrolo[3,2-c]pyridin]-4′(1′H)-one] | 31.6 to 316 nM | ≥ 50 mg/L | 
O=C1NCC2(CCNCC2)c2[nH]c(-c3ccnc(-c4ccc(Cl)c(Cl)c4)n3)cc21 [Example 1—13, 2′-(2-(3,4-dichlorophenyl)pyrimidin-4-yl)-5′,6′-dihydrospiro[piperidine-4,7′-pyrrolo[3,2-c]pyridin]-4′(1′H)-one] | 3.16 to 31.6 nM | ≥ 50 mg/L | 
O=C1NCCc2[nH]c(-c3ccnc(-c4ccccc4F)n3)cc21 [16_4 Formula (XV)] |  |  | EC50 (MK2 enzyme; Table 1, comparison compound of Formula (XV) without spiro ring, MK2 IMAP assay, read-out: pEC50, Formula (XV) (converted)): 1000 nM; solubility at 24 h [1, 4]: 44 mg/L
O=C1NCC2(CCNC2)c2[nH]c(-c3ccnc(-c4cccc(F)c4)n3)cc21 (stereo not shown) [17_4 Formula (I)] |  |  | EC50 (MK2 enzyme; Table 2, compound of Formula (I) with amine-containing spiro ring, MK2 IMAP assay, read-out: pEC50, Formula (I) (converted)): 12.6 nM; solubility at 24 h ([1]; Table 2, compound of Formula (I) with amine-containing spiro ring, pH 7.4, read-out: Solubility pH 7.4 (mg/L), Formula (I)): 48 mg/L
O=C1NCC2(CCNCC2)c2[nH]c(-c3ccnc(-c4ccc(-c5ccccc5)cc4)n3)cc21 [1—12, 2′-(2-(biphenyl-4-yl)pyrimidin-4-yl)-5′,6′-dihydrospiro[piperidine-4,7′-pyrrolo[3,2-c]pyridin]-4′(1′H)-one] | 3.16 to 31.6 nM | 20 to 50 mg/L (≈ 45.9 to 115 µM) | 
O=C1NCCc2[nH]c(-c3ccnc(-c4cccc(F)c4)n3)cc21 [16_3 Formula (XV)] |  |  | EC50 (MK2 enzyme): 501 nM; solubility at 24 h [1, 4]: 32 mg/L
O=C1NCC2(CCNCC2)c2[nH]c(-c3nc(-c4cnc5ccccc5c4)ncc3F)cc21 [4—3, 2′-(5-fluoro-2-(quinolin-3-yl)pyrimidin-4-yl)-5′,6′-dihydrospiro[piperidine-4,7′-pyrrolo[3,2-c]pyridin]-4′(1′H)-one] | ≤ 3.16 nM | ≥ 50 mg/L | 
CN1CCC2(CC1)CNC(=O)c1cc(-c3ccnc(-c4cc5ccccc5o4)n3)[nH]c12 [Example 2—1, 2′-(2-(benzofuran-2-yl)pyrimidin-4-yl)-1-methyl-5′,6′-dihydrospiro[piperidine-4,7′-pyrrolo[3,2-c]pyridin]-4′(1′H)-one] |  | 20 to 50 mg/L (≈ 48.4 to 121 µM) | EC50 (MK2 enzyme): 3.16 to 31.6 nM

Now from value to compound, other results behind:

EC50 (MK2 enzyme; [2]) | solubility at 24 h [1, 3] | SMILES | also measured
3.16 to 31.6 nM | ≥ 50 mg/L | O=C1NCC2(CCNCC2)c2[nH]c(-c3ccnc(-c4nc5ccccc5s4)c3)cc21 [Example 9—1, 2′-(2-(benzo[d]thiazol-2-yl)pyridin-4-yl)-5′,6′-dihydrospiro[piperidine-4,7′-pyrrolo[3,2-c]pyridin]-4′(1′H)-one] | 
≤ 3.16 nM | ≥ 50 mg/L | O=C1NCC2(CCNCC2)c2[nH]c(-c3ccnc(-c4cnc(NC5CCCC5)nc4)n3)cc21 [11—1, 2′-(2′-(cyclopentylamino)-2,5′-bipyrimidin-4-yl)-5′,6′-dihydrospiro[piperidine-4,7′-pyrrolo[3,2-c]pyridin]-4′(1′H)-one] | 
≤ 3.16 nM | 20 to 50 mg/L (≈ 53.1 to 133 µM) | Nc1ncc(-c2nccc(-c3cc4c([nH]3)C3(CCNCC3)CNC4=O)n2)cn1 [1—2, 2′-(2′-amino-2,5′-bipyrimidin-4-yl)-5′,6′-dihydrospiro[piperidine-4,7′-pyrrolo[3,2-c]pyridin]-4′(1′H)-one] | 
